Reference: US5998654A, “Retinoic acid receptor antagonist compounds and methods” (Ligand Pharmaceuticals Incorporated, priority 1997, dated 1999)

Legend:
RARβ = target: T1, RARβ (Homo sapiens, UniProt P10826); experiment: co-transfection assay, agonist activity on RARβ; type: cell-based; parameters: expressed in transfected cells; host or cells: CV-1 cells (African green monkey kidney); conditions: CV-1 cells; read-out: EC50 agonist potency, RARβ
T1 sequence (P10826 1-448 isoform P10826-2): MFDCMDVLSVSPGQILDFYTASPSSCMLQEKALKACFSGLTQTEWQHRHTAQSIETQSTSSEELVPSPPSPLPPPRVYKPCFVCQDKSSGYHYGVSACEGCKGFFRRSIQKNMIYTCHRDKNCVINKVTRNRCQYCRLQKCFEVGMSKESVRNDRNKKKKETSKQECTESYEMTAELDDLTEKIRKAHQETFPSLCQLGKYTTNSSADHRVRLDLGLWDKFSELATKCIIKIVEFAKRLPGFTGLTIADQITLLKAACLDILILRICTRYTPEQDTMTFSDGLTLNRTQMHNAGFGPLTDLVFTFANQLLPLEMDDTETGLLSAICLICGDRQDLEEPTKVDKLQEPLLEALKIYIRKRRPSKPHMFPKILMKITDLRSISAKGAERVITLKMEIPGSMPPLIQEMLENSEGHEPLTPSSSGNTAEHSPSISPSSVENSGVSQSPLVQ
Text: (§1) This assay is described in further detail in U.S. Pat. Nos. 4,981,784 and 5,071,773, the disclosures of which are incorporated herein by reference.
(§2) In the co-transfection assay, a cloned cDNA for an IR (e.g., human RARα:, RARβ, RXRγ) under the control of a constitutive promoter (e.g., the SV 40 promoter) is introduced by transfection (a procedure to induce cells to take up foreign genes) into a background cell substantially devoid of endogenous IRs. This introduced gene directs the recipient cells to make the IR protein of interest. A second gene is also introduced (co-transfected) into the same cells in conjunction with the IR gene. This second gene, comprising the cDNA for a reporter protein, such as firefly luciferase (LUC), is controlled by an appropriate hormone responsive promoter containing a hormone response element (HRE). This reporter plasmid functions as a reporter for the transcription-modulating activity of the target IR. Thus, the reporter acts as a surrogate for the products (mRNA then protein) normally expressed by a gene under control of the target receptor and its native hormone.
(§3) The co-transfection assay can detect small molecule agonists or antagonists of target IRs. Exposing the transfected cells to an agonist ligand compound increases reporter activity in the transfected cells. This activity can be conveniently measured, e.g., by increasing luciferase production, which reflects compound-dependent, IR-mediated increases in reporter transcription. To detect antagonists, the co-transfection assay is carried out in the presence of a constant concentration of an agonist to the target IR (e.g., all-trans retinoic acid for RARα) known to induce a defined reporter signal. Increasing concentrations of a suspected antagonist will decrease the reporter signal (e.g., luciferase production). The co-transfection assay is therefore useful to detect both agonists and antagonists of specific IRs. Furthermore, it determines not only whether a compound interacts with a particular IR, but whether this interaction mimics (agonizes) or blocks (antagonizes) the effects of the native regulatory molecules on target gene expression, as well as the specificity and strength of this interaction.
CV-1 cells (African green monkey kidney fibroblasts) were cultured in the presence of Dulbecco's Modified Eagle Medium (DMEM) supplemented with 10% charcoal resin-stripped fetal bovine serum then transferred to 96-well microtiter plates one day prior to transfection. […]

RARγ = target: T2, RARγ (Homo sapiens, UniProt P13631); experiment: co-transfection assay, antagonist activity on RARγ; type: cell-based; parameters: expressed in transfected cells; host or cells: CV-1 cells (African green monkey kidney); conditions: CV-1 cells, in presence of known RAR agonist TTNPB; for IC50: read-out: IC50 antagonist potency, RARγ
T2 sequence (P13631 1-454): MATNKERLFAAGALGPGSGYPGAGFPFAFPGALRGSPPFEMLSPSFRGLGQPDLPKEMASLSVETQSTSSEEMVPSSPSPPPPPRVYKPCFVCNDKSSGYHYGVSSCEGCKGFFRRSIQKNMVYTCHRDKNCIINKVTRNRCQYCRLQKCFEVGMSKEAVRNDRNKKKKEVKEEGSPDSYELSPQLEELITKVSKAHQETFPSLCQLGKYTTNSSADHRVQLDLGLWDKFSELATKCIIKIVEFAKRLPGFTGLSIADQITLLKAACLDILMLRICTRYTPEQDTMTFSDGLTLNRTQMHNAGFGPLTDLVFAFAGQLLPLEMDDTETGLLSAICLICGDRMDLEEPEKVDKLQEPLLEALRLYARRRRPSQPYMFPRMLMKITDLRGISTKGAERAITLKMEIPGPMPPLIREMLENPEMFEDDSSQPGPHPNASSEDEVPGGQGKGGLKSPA
Text: as §1, §2, §3
CV-1 cells (African green monkey kidney fibroblasts) were cultured in the presence of Dulbecco's Modified Eagle Medium (DMEM) supplemented with 10% charcoal resin-stripped fetal bovine serum then transferred to 96-well microtiter plates one day prior to transfection.
To determine RAR and/or RXR agonist activity of the compounds of the present invention, the CV-1 cells were transiently transfected by calcium phosphate coprecipitation according to the procedure of Berger et al., 41 J. Steroid Biochem. Mol. Biol., 733 (1992) with the following receptor expressing plasmids: pRShRARα: Giguere et al., 330 Nature, 624 (1987); pRShRARβ and pRShRARγ, Ishikawa et al., 4 Mol. Endocrin., 837 (1990); pRShRXRα, Mangelsdorf et al., 345 Nature, 224 (1990); and pRSmRXRβ and pRSmRXRγ, Mangelsdorf et al., 6 Genes & Devel., 329 (1992), the disclosures of which are herein incorporated by reference. Each of these receptor expressing plasmids was co-transfected at a concentration of 5 ng/well, along with a basal reporter plasmid at 100 ng/well, the internal control plasmid pRS-β-Gal at 50 ng/well and filler DNA, pGEM at 45 ng/well.
The basal reporter plasmid D-MTV-LUC (Hollenberg and Evans, 55 Cell, 899 (1988), the disclosure of which is herein incorporated by reference) containing two copies of the TRE-palindromic response element described in Umesono et al., 336 Nature, 262 (1988), the disclosure of which is herein incorporated by reference, was used in transfections for the RARs, and the reporter plasmid CRBPIIFKLUC, which contains an RXRE (retinoid X receptor response element, as described in Mangelsdorf et al., 66 Cell, 555 (1991), the disclosure of which is herein incorporated by reference), was used in transfections for the RXRs.

Structure (SMILES)	EC50 (RARβ) [nM]	efficacy of antagonist, % of maximal inhibition, RARγ (in parentheses after IC50) (RARγ) [%]	IC50 (RARγ) [nM]
CCCCOc1c(C(C)(C)C)cc(/C(C)=C/C=C/C(C)=C/C(=O)O)cc1C(C)(C)C [Compound 7, 2E, 4E, 6E-[7-(3,5-Di-t-butyl-4-n-butoxyphenyl)-3-methyl]-octa-2,4,6-trienoic acid]	> 10000	91	2
CCCOc1c(C(C)(C)C)cc(/C(C)=C/C=C/C(C)=C/C(=O)O)cc1C(C)(C)C [Compound 8, 2E, 4E, 6E-[7-(3,5-Di-t-butyl-4-n-propoxyphenyl)-3-methyl]-octa-2,4,6-trienoic acid]	> 10000	85	3
CCCCCOc1c(C(C)(C)C)cc(/C(C)=C/C=C/C(C)=C/C(=O)O)cc1C(C)(C)C [Compound 9, 2E, 4E, 6E-[7-(3,5-Di-t-butyl-4-n-pentoxyphenyl)-3-methyl]-octa-2,4,6-trienoic acid]	> 10000	80	5
C=C(c1ccccc1)c1cc(/C(C)=C/C=C/C(C)=C/C(=O)O)cc(C(C)(C)C)c1 [Compound 17, (2E,4E,6E)-7-[3-t-butyl-5-(1-phenyl-vinyl)-phenyl]-3-methyl-octa-2,4,6-trienoic acid]	> 10000	85	2
